Reference: patent EP4488270A1, “TRIAZOLE COMPOUNDS FOR THE CONTROL OF INVERTEBRATE PESTS” (priority 2023, dated 2025)

Key:
Type in all cases: in vivo
[1] = test system: boll weevil (Anthonomus grandis); experiment: Boll weevil test, insect diet with eggs in 96-well microtiter plates; details: 120 h, read-out: mortality in comparison with untreated controls
Description: B.3 Boll weevil (Anthonomus grandis)
For evaluating control of boll weevil (Anthonomus grandis), the test unit consisted of 96-well-microtiter plates containing an insect diet and 5-10 A. grandis eggs.
The compounds were formulated using a solution containing 75% v/v water and 25% v/v DMSO. Different concentrations of formulated compounds were sprayed onto the insect diet at 5µl, using a custom-built micro atomizer, at two replications.
After application, microtiter plates were incubated at about 25 ± 1°C and about 75 ± 5 % relative humidity for 5 days. Egg and larval mortality was then visually assessed.

[2] = test system: tobacco budworm (Heliothis virescens); experiment: Tobacco budworm test, insect diet with eggs in 96-well microtiter plates; details: 120 h, egg and larval mortality, 5 days, about 28 ± 1°C, read-out: mortality in comparison with untreated controls
Description: B.2 Tobacco budworm (Heliothis virescens)
For evaluating control of tobacco budworm (Heliothis virescens), the test unit consisted of 96-well-microtiter plates containing an insect diet and 15-25 H. virescens eggs.
The compounds were formulated using a solution containing 75% v/v water and 25% v/v DMSO. Different concentrations of formulated compounds were sprayed onto the insect diet at 10µl, using a custom-built micro atomizer, at two replications.
After application, microtiter plates were incubated at about 28 ± 1°C and about 80 ± 5 % relative humidity for 5 days. Egg and larval mortality was then visually assessed.

[3] = test system: Orchid thrips (Dichromothrips corbetti); experiment: Orchid thrips floral-immersion test; details: adult thrips on dipped orchid petals, 72 hours after treatment, read-out: mortality in comparison with untreated controls
Description: B.6 Orchid thrips (Dichromothrips corbetti)
Dichromothrips corbetti adults used for bioassay are obtained from a colony maintained continuously under laboratory conditions. For testing purposes, the test compound is diluted in a 1:1 mixture of acetone:water (vol:vol), plus Kinetic at a rate of 0.01% v/v.
Thrips potency of each compound is evaluated by using a floral-immersion technique. Each orchid petal is dipped into treatment solution and allowed to dry in Petri dishes. Treated petals are placed into individual re-sealable plastic along with about 20 adult thrips. All test arenas are held under dark condition and a temperature of about 28°C for duration of the assay. The percent mortality is recorded 72 hours after treatment.

[4] = test system: Southern armyworm (Spodoptera eridania), 2nd instar larvae; experiment: Southern armyworm foliar spray test on lima bean plants; details: 96 h, 4 days after treatment, read-out: mortality in comparison with untreated controls
Description: B.4. Southern armyworm (Spodoptera eridania), 2nd instar larvae
The active compounds were formulated by a Tecan liquid handler in 100% cyclohexanone as a 10,000-ppm solution supplied in tubes. The 10,000-ppm solution was serially diluted in 100% cyclohexanone to make interim solutions. These served as stock solutions for which final dilutions were made by the Tecan in 50% acetone:50% water (v/v) into 10 or 20ml glass vials. A non-ionic surfactant (Kinetic®) was included in the solution at a volume of 0.01% (v/v). The vials were then inserted into an automated electrostatic sprayer equipped with an atomizing nozzle for application to plants/insects. Lima bean plants (variety Sieva) were grown 2 plants to a pot and selected for treatment at the 1st true leaf stage. Test solutions were sprayed onto the foliage by an automated electrostatic plant sprayer equipped with an atomizing spray nozzle. The plants were dried in the sprayer fume hood and then removed from the sprayer. Each pot was placed into perforated plastic bags with a zip closure. Ten to 11 armyworm larvae were placed into the bag and the bags zipped closed. […] Mortality and reduced feeding were assessed 4 days after treatment, compared to untreated control plants.

[5] = test system: yellow fever mosquito (Aedes aegypti); experiment: whole plant or invertebrate; details: 48 h, larval mortality, 2 days, 28 ± 1°C, read-out: mortality in comparison with untreated controls
Description: B.5 Yellow fever mosquito (Aedes aegypti)
For evaluating control of yellow fever mosquito (Aedes aegypti) the test unit consisted of 96-well-microtiter plates containing 200µl of tap water per well and 5-15 freshly hatched A. aegypti larvae.
The active compounds were formulated using a solution containing 75% (v/v) water and 25% (v/v) DMSO. Different concentrations of formulated compounds or mixtures were sprayed onto the insect diet at 2.5µl, using a custom-built micro atomizer, at two replications.
After application, microtiter plates were incubated at 28 ± 1°C, 80 ± 5 % RH for 2 days. Larval mortality was then visually assessed.

[6] = test system: green peach aphid (Myzus persicae); experiment: Green peach aphid systemic test, artificial diet under membrane in 96-well microtiter plates; details: 72 h, adult aphids on treated diet, 3 days, about 23 ± 1°C, read-out: mortality in comparison with untreated controls
Excerpt: B.1 Green Peach Aphid (Myzus persicae)
For evaluating control of green peach aphid (Myzus persicae) through systemic means, the test unit consisted of 96-well-microtiter plates containing liquid artificial diet under an artificial mem brane.
The compounds were formulated using a solution containing 75% v/v water and 25% v/v DMSO. Different concentrations of formulated compounds were pipetted into the aphid diet, using a custom built pipetter, at two replications.
After application, 5 - 8 adult aphids were placed on the artificial membrane inside the microtiter plate wells. The aphids were then allowed to suck on the treated aphid diet and incubated at about 23 ± 1°C and about 50 ± 5 % relative humidity for 3 days. Aphid mortality and fecundity was then visually assessed.

CC(NC(=O)c1cc(C(F)(F)F)cc(C(F)(F)F)c1)c1nccnc1-c1ncn(C2(C(N)=O)CC2)n1 (stereo not drawn) [I-2, N-[1-[3-[1-(1-carbamoylcyclopropyl)-1,2,4-triazol-3-yl]pyrazin-2-yl]ethyl]-3,5-bis(trifluoromethyl)benzamide]
≥ 75%: mortality at 2500 ppm [1] | mortality at 2500 ppm [2] | mortality at 300 ppm [3] | mortality at 300 ppm [4] | mortality at 2500 ppm [5] | mortality at 2500 ppm [6]

CC(NC(=O)c1cc(C(F)(F)F)cc(C(F)(F)F)c1)c1nccnc1-c1ncn(C2(C#N)CC2)n1 (stereo not drawn) [I-3, N-[1-[3-[1-(1-cyanocyclopropyl)-1,2,4-triazol-3-yl]pyrazin-2-yl]ethyl]-3,5-bis(trifluoromethyl)benzamide]
≥ 75%: mortality at 2500 ppm [1] | mortality at 2500 ppm [2] | mortality at 300 ppm [3] | mortality at 300 ppm [4] | mortality at 2500 ppm [5] | mortality at 2500 ppm [6]
